Where two headings read alike, the source gives them in different places.
How the values were obtained:
[1] = tested on: curly tail embryos (posterior neuropore closure); format: cell-based, mouse; details: for Effect on posterior neuropore length: vs PBS-treated controls
Method: (§1) Mice—Curly tail mice are maintained as a homozygous, random-bred stock (Van Straaten, H. W. M. & Copp, A. J., Anat. Embryol. 203, 225-237 (2001)) Experimental litters were generated by timed matings, and the day of finding a copulation plug was designated embryonic day (E) 0.5.
In vitro inositol treatment—E9.5 embryos (17-19 somite stage) were cultured for 24 hours at 38° C. in whole rat serum. Thirty minutes after the start of culture, myo-inositol (Sigma, UK) or D-chiro-inositol (Insmed, Va., USA) was added to the medium (62.5 μl of inositol stock per ml rat serum) to a final concentration of 5, 10, 20 or 50 μg/ml inositol. Control cultures received an equal volume of phosphate buffered saline (PBS). Following culture, embryos were scored for: (i) posterior neuropore length (the distance from the rostral end of the posterior neuropore to the tip of the tail bud), (ii) crown-rump length and (iii) somite number.

[2] = tested on: curly tail fetuses (spina bifida and tail flexion defects); format: in vivo, mouse; details: for Likelihood of fetuses being normal vs PBS (ordinal multilevel regression): subcutaneous; for Decrease in spina bifida frequency relative to PBS controls: subcutaneous 72 and 144 μg/g body weight/day
Method: as §1
In utero inositol treatment (subcutaneous administration)—For sub-cutaneous administration, osmotic mini-pumps (capacity 100 μl, delivery rate 1 μl/hour; Model 1003D, Alzet) were filled with solutions of 30, 75 or 150 mg/ml inositol (delivering 29, 72 and 144 μg inositol/g body weight/day respectively for a 25 g mouse), or PBS as a control. Mini-pumps were incubated in sterile PBS at 37° C. for 4 hours and then implanted subcutaneously on the back of pregnant mice at E8.5. General anesthesia was induced by an intra-peritoneal injection of 0.01 ml/g body weight of a solution comprising 10% Hypnovel® (midazolam 5 mg/ml) and 25% Hypnorm® (fentanyl citrate 0.315 mg/ml, fluanisone 10 mg/ml) in sterile distilled water.
(§2) Pregnant females were killed at E18.5, and the total number of implantations, classified as viable fetuses or resorptions, was recorded. Fetuses were dissected from the uterus and inspected immediately for the presence of open lumbo-sacral spina bifida and tail flexion defects: the primary manifestations of the curly tail genetic defect.

[3] = tested on: patients with polycystic ovary syndrome; details: cited from earlier work
[4] = tested on: curly tail mouse fetuses (NTDs characterized by spina bifida); experiment: In vivo treatment of pregnant curly-tail mice by oral gavage, fetuses scored for NTDs; details: three days; for Number of fetuses showing NTDs characterized by spina bifida / Percent of treated fetuses showing spina bifida: oral gavage 400 mg/kg twice daily
Method: (§3) In in vivo studies, pregnant curly-tail female mice were treated with inositols or PBS (control) by either subcutaneous injection or oral gavage. Using inositols at 75 mg/ml injected by subcutaneous minipump at […], a total daily dosage of 90 mg/kg/day was administered. Inositols were administered from gestational day 8.5 through day 18.5, and fetuses were scored for NTDs on days 12.5 and 18.5. For oral dosing, mice were administered via gavage with 400 mg/kg of inositol twice daily on gestational days 8.5 through 10.5, with fetuses scored for NTDs on day 12.5.

curly-tail mouse embryos = experiment: In vitro culture of curly-tail mouse embryos with inositols at 20 μg/ml for 24 hours; format: cell-based; details: for Mean posterior neuropore length / Mean posterior neuropore to crown-rump length ratio: in vitro; for Fold decrease in mean posterior neuropore length: 24 hours of treatment in vitro
Method: In in vitro studies, curly-tail mouse embryos were explanted into culture at 9.5 days after conception, corresponding to the onset of low spinal cord neural tube closure. Inositol additions were made at the start of culture and were maintained throughout the 24 hour culture period. Inositols were maintained at 20 μg/ml. At the end of culture, the embryos were dissected from their extraembryonic membranes, and crown-rump and posterior neuropore lengths were measured as indices of developmental growth, progression and low spinal neural tube closure.

[5] = tested on: curly tail fetuses (spina bifida and tail flexion defects); experiment: In utero inositol treatment, oral dosing by gavage, fetuses inspected at E18.5; format: in vivo, mouse; details: for Curly tail, % of total for treatment group / Curly tail, number of fetuses / No. uterine resorptions / No. viable fetuses / Normal, % of total for treatment group / Normal, number of fetuses / Resorptions as % of total number of implantations / Spina bifida ± curly tail, % of total for treatment group / Spina bifida ± curly tail, number of fetuses / Mean litter size ± SEM: oral 800 μg inositol/g body weight/day; for Mean litter size ± SEM: viable fetuses per litter; for Reduction in the frequency of spina bifida / Effect on frequency of spina bifida among offspring: oral 800 μg/g body weight/day; for Effect on frequency of spina bifida among offspring: E8.5 to E10.5; for Likelihood of fetuses being normal vs PBS (ordinal multilevel regression): oral dosing study
Method: as §1
In utero inositol treatment (oral dosing)—For oral administration, pregnant mice were gavaged with 0.5 ml inositol solution in PBS at 12 hourly intervals from E8.5 to E10.5 (six doses in total; 800 μg/g body weight/day).
as §2

[6] = tested on: curly tail mouse fetuses (NTDs characterized by spina bifida); experiment: In vivo treatment of pregnant curly-tail mice by subcutaneous minipump, fetuses scored for NTDs; details: subcutaneous 90 mg/kg/day, four to ten days
Method: as §3

[7] = tested on: rat fibroblasts expressing the human insulin receptor; details: cited from earlier work
[8] = tested on: rats rendered diabetic by streptozotocin; details: cited from earlier work
NTDs = details: folic acid supplementation in early pregnancy; cited from earlier work
[9] = tested on: curly tail mice (spinal NTDs); details: cultured embryos and offspring of curly tail mice treated during pregnancy; cited from earlier work
[10] = subcutaneous 29 μg inositol/g body weight/day
[11] = subcutaneous 72 μg inositol/g body weight/day
[12] = subcutaneous 144 μg inositol/g body weight/day

SMILES: OC1C(O)C(O)C(O)C(O)C1O [D-chiro-inositol]
- Crown-rump length compared with PBS-treated controls [1]: no significant difference
- Effect on posterior neuropore length ([1]; 20 μg/ml): reduced neuropore length
- Effect on posterior neuropore length ([1]; 50 μg/ml): reduced neuropore length
- Effect on posterior neuropore length ([1]; 5-10 μg/ml): not different from PBS-treated controls
- Likelihood of fetuses being normal vs PBS (ordinal multilevel regression) [2]: significantly more likely to be normal
- Curly tail, % of total for treatment group [2, 10]: 65.4%
- Curly tail, number of fetuses [2, 10]: 17
- Normal, % of total for treatment group [2, 10]: 23.1%
- Normal, number of fetuses [2, 10]: 6
- Spina bifida ± curly tail, % of total for treatment group [2, 10]: 11.5%
- Spina bifida ± curly tail, number of fetuses [2, 10]: 3
- Curly tail, % of total for treatment group [2, 11]: 45.4%
- Curly tail, number of fetuses [2, 11]: 39
- Normal, % of total for treatment group [2, 11]: 52.3%
- Normal, number of fetuses [2, 11]: 45
- Spina bifida ± curly tail, % of total for treatment group [2, 11]: 2.3%
- Spina bifida ± curly tail, number of fetuses [2, 11]: 2
- Curly tail, % of total for treatment group [2, 12]: 46.5%
- Curly tail, number of fetuses [2, 12]: 46
- Normal, % of total for treatment group [2, 12]: 48.5%
- Normal, number of fetuses [2, 12]: 48
- Spina bifida ± curly tail, % of total for treatment group [2, 12]: 5.0%
- Spina bifida ± curly tail, number of fetuses [2, 12]: 5
- Decrease in spina bifida frequency relative to PBS controls [2]: 73-83%
- Effect on the action of insulin [3]: increase the action of insulin
- Number of fetuses showing NTDs characterized by spina bifida [4]: 1
- Percent of treated fetuses showing spina bifida [4]: 2.3%
- Fold decrease in number of fetuses with spina bifida compared to control ([4]; oral): 8 fold
- Fold decrease in number of fetuses with spina bifida compared to myo-inositol ([4]; oral): 3 fold
- Mean posterior neuropore length (curly-tail mouse embryos; 20 μg/ml, 24 hours): 0.095±0.055
- Mean posterior neuropore to crown-rump length ratio (curly-tail mouse embryos; 20 μg/ml, 24 hours): .029±.018
- Fold decrease in mean posterior neuropore to crown-rump length ratio (curly-tail mouse embryos; 20 μg/ml, 24 hours, compared to control or myo-inositol treated): 5.6 fold
- Fold decrease in mean posterior neuropore length (curly-tail mouse embryos): 6 fold
- Curly tail, % of total for treatment group [5]: 30.8%
- Curly tail, number of fetuses [5]: 12
- No. uterine resorptions [5]: 3
- No. viable fetuses [5]: 39
- Normal, % of total for treatment group [5]: 66.7%
- Normal, number of fetuses [5]: 26
- Resorptions as % of total number of implantations [5]: 7.1%
- Spina bifida ± curly tail, % of total for treatment group [5]: 2.6%
- Spina bifida ± curly tail, number of fetuses [5]: 1
- Mean litter size ± SEM [5]: 6.50 ± 1.09
- Reduction in the frequency of spina bifida [5]: 86%
- Effect on frequency of spina bifida among offspring [5]: marked reduction in the frequency of spina bifida
- Likelihood of fetuses being normal vs PBS (ordinal multilevel regression) [5]: more likely to be normal
- Fold decrease in number of fetuses with spina bifida compared to control [6]: 9 fold
- Fold decrease in number of fetuses with spina bifida compared to myo-inositol [6]: 4 fold
- Number of fetuses showing NTDs characterized by spina bifida [6]: 1
- Percent of treated fetuses showing spina bifida [6]: 1.7%
- Effect of insulin stimulation on incorporation into phospholipids [7]: significant increase
- Reduction in plasma glucose level compared with exogenous myo-inositol [8]: much larger reduction in plasma glucose level

SMILES: Nc1nc2ncc(CNc3ccc(C(=O)N[C@@H](CCC(=O)O)C(=O)O)cc3)nc2c(=O)[nH]1 [folic acid]
- NTDs that can be prevented (NTDs): Up to 70%

SMILES: O[C@H]1[C@H](O)[C@@H](O)[C@H](O)[C@@H](O)[C@H]1O [myo-inositol, reference compound]
- Crown-rump length compared with PBS-treated controls [1]: no significant difference
- Effect on posterior neuropore length ([1]; 20 μg/ml): not different from PBS-treated controls
- Effect on posterior neuropore length ([1]; 50 μg/ml): comparable effect
- Likelihood of fetuses being normal vs PBS (ordinal multilevel regression) [2]: reached statistical significance
- Curly tail, % of total for treatment group [2, 10]: 41.4%
- Curly tail, number of fetuses [2, 10]: 12
- Normal, % of total for treatment group [2, 10]: 37.9%
- Normal, number of fetuses [2, 10]: 11
- Spina bifida ± curly tail, % of total for treatment group [2, 10]: 20.7%
- Spina bifida ± curly tail, number of fetuses [2, 10]: 6
- Curly tail, % of total for treatment group [2, 11]: 55.2%
- Curly tail, number of fetuses [2, 11]: 37
- Normal, % of total for treatment group [2, 11]: 38.8%
- Normal, number of fetuses [2, 11]: 26
- Spina bifida ± curly tail, % of total for treatment group [2, 11]: 6.0%
- Spina bifida ± curly tail, number of fetuses [2, 11]: 4
- Curly tail, % of total for treatment group [2, 12]: 55.3%
- Curly tail, number of fetuses [2, 12]: 52
- Normal, % of total for treatment group [2, 12]: 36.2%
- Normal, number of fetuses [2, 12]: 34
- Spina bifida ± curly tail, % of total for treatment group [2, 12]: 8.5%
- Spina bifida ± curly tail, number of fetuses [2, 12]: 8
- Decrease in spina bifida frequency relative to PBS controls [2]: 54-56%
- Number of fetuses showing NTDs characterized by spina bifida [4]: 3
- Percent of treated fetuses showing spina bifida [4]: 8.6%
- Effect on incidence of spinal NTDs [9]: significantly reducing the incidence of spinal NTDs
- Mean posterior neuropore length (curly-tail mouse embryos; 20 μg/ml, 24 hours): 0.601±0.090
- Mean posterior neuropore to crown-rump length ratio (curly-tail mouse embryos; 20 μg/ml, 24 hours): 0.172 ±0.026
- Fold decrease in mean posterior neuropore length (curly-tail mouse embryos): 6 fold
- Curly tail, % of total for treatment group [5]: 42.9%
- Curly tail, number of fetuses [5]: 15
- No. uterine resorptions [5]: 3
- No. viable fetuses [5]: 35
- Normal, % of total for treatment group [5]: 48.6%
- Normal, number of fetuses [5]: 17
- Resorptions as % of total number of implantations [5]: 7.9%
- Spina bifida ± curly tail, % of total for treatment group [5]: 8.6%
- Spina bifida ± curly tail, number of fetuses [5]: 3
- Mean litter size ± SEM [5]: 5.83 ± 0.48
- Reduction in the frequency of spina bifida [5]: 53%
- Effect on frequency of spina bifida among offspring [5]: marked reduction in the frequency of spina bifida
- Likelihood of fetuses being normal vs PBS (ordinal multilevel regression) [5]: did not differ significantly
- Number of fetuses showing NTDs characterized by spina bifida [6]: 4
- Percent of treated fetuses showing spina bifida [6]: 6.3%
- Effect of insulin stimulation on incorporation into phospholipids [7]: only marginal
